We go through 19 compounds from patent US7211576B2, “Diaminothiazoles” (Hoffmann-La Roche Inc., priority 2004, dated 2007).

pIC50: −log10 of the molar value.

Common to all, as to assay type: biochemical
The target of one experiment is human cyclin E-CDK2 (Homo sapiens, UniProt P24941). As to the kind of experiment: FlashPlate kinase assay, cyclin E-CDK2. As to conditions: Rb protein substrate, 1 μM ATP, 33P-ATP, 30 minutes room temperature. On the procedure: (§1) To determine inhibition of Cdk4, Cdk2 and Cdk1 activity, kinase assays were conducted using FlashPlate™ assays (NEN™-Life Science Products). FlashPlate assays were performed using recombinant human cyclin B-CDK1, human cyclin E-CDK2 or human cyclin D1-CDK4 complexes. GST-cyclinE (GST-cycE), CDK2, GST-cyclinB (GST-cycB), CDK1, GST-CDK4 and cyclin D1 (cycD1) cDNA clones in baculovirus vectors were provided by Dr. W. Harper at the Baylor College of Medicine, Houston, Tex. Proteins were co-expressed in High Five™ insect cells and the complex was purified on glutathione Sepharose resin (Pharmacia, Piscataway, N.J.) as previously described (Harper, J. W. et al. Cell 1993, 75, 805–816). A 6×-Histidine tagged truncated form of retinoblastoma (Rb) protein (amino acid 386–928) was used as the substrate for the cycD1-CDK4, cycB-CDK1 and the cycE-CDK2 assays (the expression plasmid was provided by Dr. Veronica Sullivan, Department of Molecular Virology, Roche Research Centre, Welwyn Garden City, United Kingdom). The Rb protein is a natural substrate for phosphorylation by CDK4, CDK2 and CDK1 (see Herwig and Strauss Eur. J. Biochem. Vol. 246 (1997) pp. 581–601 and the references cited therein).
(§2) The expression of the 62Kd protein was under the control of an IPTG inducible promoter in an M15 E. coli strain. Cells were lysed by sonication and purification was carried out by binding lysates at pH 8.0 to a Ni-chelated agarose column pretreated with 1 mM imidazole. The resin was then washed several times with incrementally decreasing pH buffers to pH 6.0, and eluted with 500 mM imidazole. Eluted protein was dialysed against 20 mM HEPES pH 7.5, 30% glycerol, 200 mM NaCl, and 1 mM DTT. Purified Rb fusion protein stocks were quantitated for protein concentration, aliquoted, and stored at −70° C.
(§3) For all three kinase assays reported herein, 96-well FlashPlates were coated with Rb protein at 10 μg/ml, using 100 μl per well. Plates were incubated at 4° C. overnight or at room temperature for 3 hours on a shaker. To control for nonspecific phosphorylation, one row of wells was coated with 100 μl/well coating buffer (20 mM HEPES, 0.2 M NaCl). Plates were then washed twice with wash buffer (0.01% Tween 20 in phosphate-buffered saline). Compounds to be tested (“test compounds”) were added to the wells at 5× final concentration. Reactions were initiated by immediate addition of 40 μl reaction mix (25 mM HEPES, 20 mM MgCl2, 0.002% Tween 20, 2 mM DTT, 1 μM ATP, 4 nM ^33P-ATP) and a sufficient amount of enzyme to give counts that were at least 10-fold above background. Plates were incubated at room temperature on a shaker for 30 minutes. Plates were washed four times with the wash buffer, sealed, and counted on the TopCount scintillation counter (Packard Instrument Co., Downers Grove, Ill.]. The percent inhibition of Rb phosphorylation, which is a measure of the inhibition of CDK activity, was determined according to the following formula:
(§4) [formula] where “test compound” refers to the average counts per minute of the test duplicates, “nonspecific” refers to the average counts per minute when no CyclinD/Cdk4, etc., was added, and “total” refers to the average counts per minute when no compound was added. The IC50 value is the concentration of test compound that reduces by 50% the protein-kinase induced incorporation of the radiolabel under the test conditions described.

Another experiment has as its target human cyclin D1-CDK4 (Homo sapiens, UniProt P11802). Kind of experiment: FlashPlate kinase assay, cyclin D1-CDK4. As to conditions: Rb protein substrate, 1 μM ATP, 33P-ATP, 30 minutes room temperature; read-out: CDK4 IC50. The method, then: To determine inhibition of Cdk4, Cdk2 and Cdk1 activity, kinase assays were conducted using FlashPlate™ assays (NEN™-Life Science Products). FlashPlate assays were performed using recombinant human cyclin B-CDK1, human cyclin E-CDK2 or human cyclin D1-CDK4 complexes. GST-cyclinE (GST-cycE), CDK2, GST-cyclinB (GST-cycB), CDK1, GST-CDK4 and cyclin D1 (cycD1) cDNA clones in baculovirus vectors were provided by Dr. W. Harper at the Baylor College of Medicine, Houston, Tex.
as §2, §3
[formula] where “test compound” refers to the average counts per minute of the test duplicates, “nonspecific” refers to the average counts per minute when no CyclinD/Cdk4, etc., was added, and “total” refers to the average counts per minute when no compound was added.

The target in the next experiment is human cyclin B-CDK1 (Homo sapiens, UniProt P06493). Kind of experiment: FlashPlate kinase assay, cyclin B-CDK1. As to conditions: Rb protein substrate, 1 μM ATP, 33P-ATP, 30 minutes room temperature. The method, then:
as §1, §2, §3, §4

Sequence of human cyclin B-CDK1 (P06493 whole entry): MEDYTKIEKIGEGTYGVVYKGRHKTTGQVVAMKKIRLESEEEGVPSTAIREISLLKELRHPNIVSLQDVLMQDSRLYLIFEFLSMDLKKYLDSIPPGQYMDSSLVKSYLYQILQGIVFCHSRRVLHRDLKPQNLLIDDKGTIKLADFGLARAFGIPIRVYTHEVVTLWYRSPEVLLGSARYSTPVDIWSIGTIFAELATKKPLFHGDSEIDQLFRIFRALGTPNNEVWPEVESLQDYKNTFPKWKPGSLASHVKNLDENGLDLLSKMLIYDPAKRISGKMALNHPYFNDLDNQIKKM
Sequence of human cyclin B-CDK1 (P14635 whole entry partner): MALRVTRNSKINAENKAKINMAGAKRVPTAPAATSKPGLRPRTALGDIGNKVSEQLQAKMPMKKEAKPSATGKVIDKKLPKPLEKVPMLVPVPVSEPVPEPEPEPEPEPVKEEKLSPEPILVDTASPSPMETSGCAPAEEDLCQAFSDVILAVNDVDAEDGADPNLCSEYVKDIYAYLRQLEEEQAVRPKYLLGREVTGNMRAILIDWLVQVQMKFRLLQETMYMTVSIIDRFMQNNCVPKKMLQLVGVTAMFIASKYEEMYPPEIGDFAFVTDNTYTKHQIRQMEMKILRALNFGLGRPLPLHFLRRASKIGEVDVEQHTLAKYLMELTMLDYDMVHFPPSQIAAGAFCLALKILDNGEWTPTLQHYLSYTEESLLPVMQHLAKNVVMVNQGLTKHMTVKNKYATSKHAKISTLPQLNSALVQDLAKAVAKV
Sequence of human cyclin D1-CDK4 (P11802 whole entry): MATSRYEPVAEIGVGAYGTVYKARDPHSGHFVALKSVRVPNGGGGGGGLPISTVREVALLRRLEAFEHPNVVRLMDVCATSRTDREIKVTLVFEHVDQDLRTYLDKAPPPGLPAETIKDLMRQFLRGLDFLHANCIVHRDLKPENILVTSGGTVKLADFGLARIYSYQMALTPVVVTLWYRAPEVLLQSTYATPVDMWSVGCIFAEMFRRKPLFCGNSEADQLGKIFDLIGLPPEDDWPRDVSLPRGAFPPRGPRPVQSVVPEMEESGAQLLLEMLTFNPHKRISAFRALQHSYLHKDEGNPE
Sequence of human cyclin D1-CDK4 (P24385 whole entry partner): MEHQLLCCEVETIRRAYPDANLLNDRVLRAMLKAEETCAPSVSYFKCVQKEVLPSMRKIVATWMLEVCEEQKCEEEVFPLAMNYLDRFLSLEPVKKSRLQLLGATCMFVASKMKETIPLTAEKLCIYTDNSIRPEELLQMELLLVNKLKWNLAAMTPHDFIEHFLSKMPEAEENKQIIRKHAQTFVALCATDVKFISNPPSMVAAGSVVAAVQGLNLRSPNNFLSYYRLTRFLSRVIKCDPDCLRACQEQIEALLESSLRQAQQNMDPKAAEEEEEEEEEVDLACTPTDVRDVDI

`Nc1nc(Nc2ccc(N3CCC(N4CCCC4)CC3)cc2)sc1C(=O)c1ccc(F)c(F)c1` [Example 68, {4-Amino-2-[4-(4-pyrrolidin-1-yl-piperidin-1-yl)-phenylamino]-thiazol-5-yl}-(3,4-difluoro-phenyl)-methanone]: the results for the pIC50 against human cyclin E-CDK2, on human cyclin D1-CDK4 and at human cyclin B-CDK1 were 5.23, 7.05 and 5.41, respectively.
As for `N#Cc1cccc(C(=O)c2sc(Nc3ccc(N4CCC(N5CCOCC5)CC4)cc3)nc2N)c1` [Example 104, 3-{4-Amino-2-[4-(4-morpholin-4-yl-piperidin-1-yl)-phenylamino]-thiazole-5-carbonyl}-benzonitrile], the pIC50 against human cyclin E-CDK2 is 5.70; at human cyclin D1-CDK4, 7.51; on human cyclin B-CDK1, 5.89.
In the case of `Nc1nc(Nc2ccc(N3CCC(N4CCCCC4)CC3)cc2)sc1C(=O)c1cccc(O)c1` [Example 65, [4-Amino-2-(4-[1,4′]bipiperidinyl-1′-yl-phenylamino)-thiazol-5-yl]-(3-hydroxy-phenyl)-methanone], the pIC50 against human cyclin E-CDK2 is 5.47; at human cyclin D1-CDK4 it was 7.74; against human cyclin B-CDK1 it was 5.84.
For `CN(C)C1CCN(c2ccc(Nc3nc(N)c(C(=O)c4ccc(F)c(F)c4)s3)cc2)CC1` [Example 84, {4-Amino-2-[4-(4-dimethylamino-piperidin-1-yl)-phenylamino]-thiazol-5-yl}-(3,4-difluoro-phenyl)-methanone], in that order: 5.02, 6.91 and 5.43.
Take `COc1cccc(C(=O)c2sc(Nc3ccc(N4CCC(N5CCOCC5)CC4)cc3)nc2N)c1` [Example 102, {4-Amino-2-[4-(4-morpholin-4-yl-piperidin-1-yl)-phenylamino]-thiazol-5-yl}-(3-methoxy-phenyl)-methanone]: the pIC50 was 5.32 against human cyclin E-CDK2, 7.54 on human cyclin D1-CDK4 and 5.70 against human cyclin B-CDK1.
As to `N#Cc1cccc(C(=O)c2sc(Nc3ccc(N4CCC(N5CCCCC5)CC4)cc3)nc2N)c1` [Example 64, 3-[4-Amino-2-(4-[1,4′]bipiperidinyl-1′-yl-phenlamino)-thiazole-5-carbonyl]-benzonitrile], the pIC50 is 5.57 at human cyclin E-CDK2, 7.82 on human cyclin D1-CDK4 and 5.89 against human cyclin B-CDK1.
Consider `Nc1nc(Nc2ccc(N3CCC(N4CCCC(O)C4)CC3)cc2)sc1C(=O)c1ccc(Cl)c(Cl)c1` (stereo not drawn) [Example 76, {4-Amino-2-[4-(3-hydroxy-[1,4′]bipiperidinyl-1′-yl)-phenylamino]-thiazol-5-yl}-(3,4-dichloro-phenyl)-methanone], for which the pIC50 against human cyclin E-CDK2 is 5.06; at human cyclin D1-CDK4, 6.91.
On to `Nc1nc(Nc2ccc(N3CCC(N4CCOCC4)CC3)cc2)sc1C(=O)c1cccc(F)c1` [Example 99, {4-Amino-2-[4-(4-morpholin-4-yl-piperidin-1-yl)-phenylamino]-thiazol-5-yl}-(3-fluoro-phenyl)-methanone], for which the values for the pIC50 against human cyclin E-CDK2, on human cyclin D1-CDK4 and at human cyclin B-CDK1 were 6.26, 7.46 and 6.35, respectively.
For `Nc1nc(Nc2ccc(N3CCC(N4CCCC4)CC3)cc2)sc1C(=O)c1ccc(Cl)c([N+](=O)[O-])c1` [Example 71, {4-Amino-2-[4-(4-pyrrolidin-1-yl-piperidin-1-yl)-phenylamino]-thiazol-5-yl}-(4-chloro-3-nitro-phenyl)-methanone], the pIC50 against human cyclin E-CDK2 was 5.38; at human cyclin D1-CDK4, 6.79; on human cyclin B-CDK1 it was 5.39.
In the case of `Nc1nc(Nc2ccc(N3CCC(N4CCCC4)CC3)cc2)sc1C(=O)c1ccc(Cl)c(Cl)c1` [Example 69], the pIC50 against human cyclin E-CDK2 is 5.25; on human cyclin D1-CDK4, 6.99; at human cyclin B-CDK1, 5.21.
Consider `Nc1nc(Nc2ccc(N3CCC(N4CCCC(O)C4)CC3)cc2)sc1C(=O)c1ccc(Cl)c([N+](=O)[O-])c1` (stereo not drawn) [Example 78, {4-Amino-2-[4-(3-hydroxy-[1,4′]bipiperidinyl-1′-yl)-phenylamino]-thiazol-5-yl}-(4-chloro-3-nitro-phenyl)-methanone], for which the pIC50 was 5.43 at human cyclin E-CDK2, 6.61 at human cyclin D1-CDK4 and 5.54 at human cyclin B-CDK1.
For `Nc1nc(Nc2ccc(N3CCC(N4CCCC(O)C4)CC3)cc2)sc1C(=O)c1cc(F)cc(F)c1` (stereo not drawn) [Example 73, {4-Amino-2-[4-(3-hydroxy-[1,4′]bipiperidinyl-1′-yl)-phenylamino]-thiazol-5-yl}-(3,5-difluoro-phenyl)-methanone], the pIC50 against human cyclin E-CDK2 was 5.09; on human cyclin D1-CDK4, 7.06; against human cyclin B-CDK1, 5.59.
Turning to `Nc1nc(Nc2ccc(N3CCC(N4CCCCC4)CC3)cc2)sc1C(=O)c1ccc(Cl)c([N+](=O)[O-])c1` [Example 62, [4-Amino-2-(4-[1,4′]bipiperidinyl-1′-yl-phenylamino)-thiazol-5-yl]-(4-chloro-3-nitro-phenyl)-methanone], the values for the pIC50 on human cyclin E-CDK2, on human cyclin D1-CDK4 and against human cyclin B-CDK1 were 5.38, 6.56 and 5.38, respectively.
Consider `Nc1nc(Nc2ccc(N3CCC(N4CCCCC4)CC3)cc2)sc1C(=O)c1ccc(O)cc1` [Example 29, [4-Amino-2-(4-[1,4′]bipiperidinyl-1′-yl-phenylamino)-thiazol-5-yl]-(4-hydroxy-phenyl)-methanone], for which the figures for the pIC50 against human cyclin E-CDK2, at human cyclin D1-CDK4 and on human cyclin B-CDK1 were 5.40, 7.26 and 5.91, respectively.
With `CCOC(=O)c1cc2ccc(C(=O)c3sc(Nc4ccc(N5CCC(N6CCCC6)CC5)cc4)nc3N)cc2[nH]1` [Example 124], the pIC50 against human cyclin E-CDK2 was 5.36; on human cyclin D1-CDK4 it was 7.17; against human cyclin B-CDK1 it was 4.94.
Turning to `Nc1nc(Nc2ccc(N3CCC(N4CCOCC4)CC3)cc2)sc1C(=O)c1cccc([N+](=O)[O-])c1` [Example 105, {4-Amino-2-[4-(4-morpholin-4-yl-piperidin-1-yl)-phenylamino]-thiazol-5-yl}-(3-nitro-phenyl)-methanone], the pIC50 is 5.82 against human cyclin E-CDK2, 7.41 at human cyclin D1-CDK4 and 5.89 at human cyclin B-CDK1.
Turning to `CN(C)C1CCN(c2ccc(Nc3nc(N)c(C(=O)c4ccc(Cl)c(Cl)c4)s3)cc2)CC1` [Example 85, {4-Amino-2-[4-(4-dimethylamino-piperidin-1-yl)-phenylamino]-thiazol-5-yl}-(3,4-dichloro-phenyl)-methanone], the pIC50 is 5.65 against human cyclin E-CDK2, 7.01 at human cyclin D1-CDK4 and 6.29 against human cyclin B-CDK1.
Turning to `Nc1nc(Nc2ccc(N3CCC(N4CCCCC4)CC3)cc2)sc1C(=O)c1ccc(Cl)c(Cl)c1` [Example 60, [4-Amino-2-(4-[1,4′]bipiperidinyl-1′-yl-phenylamino)-thiazol-5-yl]-(3,4-dichloro-phenyl)-methanone], the pIC50 at human cyclin D1-CDK4 is 7.05; at human cyclin B-CDK1 it was 5.24.
In the case of `Nc1nc(Nc2ccc(N3CCC(N4CCOCC4)CC3)cc2)sc1C(=O)c1ccc2c(c1)OCO2` [Example 101, {4-Amino-2-[4-(4-morpholin-4-yl-piperidin-1-yl)-phenylamino]-thiazol-5-yl}-benzo[1,3]dioxol-5-yl-methanone], the figures for the pIC50 on human cyclin D1-CDK4 and against human cyclin B-CDK1 were 7.60 and 6.24, respectively.

Broadly, the pIC50 is −log10 of the IC50, conventionally taken in molar units.
